# Biological target: T1, DGKE (Diacylglycerol kinase epsilon) (Homo sapiens, UniProt P52429)
# T1 construct: expressed in transfected cells; host or cells: SILAC HEK293T, membrane fraction
# T1 sequence (P52429 1-567): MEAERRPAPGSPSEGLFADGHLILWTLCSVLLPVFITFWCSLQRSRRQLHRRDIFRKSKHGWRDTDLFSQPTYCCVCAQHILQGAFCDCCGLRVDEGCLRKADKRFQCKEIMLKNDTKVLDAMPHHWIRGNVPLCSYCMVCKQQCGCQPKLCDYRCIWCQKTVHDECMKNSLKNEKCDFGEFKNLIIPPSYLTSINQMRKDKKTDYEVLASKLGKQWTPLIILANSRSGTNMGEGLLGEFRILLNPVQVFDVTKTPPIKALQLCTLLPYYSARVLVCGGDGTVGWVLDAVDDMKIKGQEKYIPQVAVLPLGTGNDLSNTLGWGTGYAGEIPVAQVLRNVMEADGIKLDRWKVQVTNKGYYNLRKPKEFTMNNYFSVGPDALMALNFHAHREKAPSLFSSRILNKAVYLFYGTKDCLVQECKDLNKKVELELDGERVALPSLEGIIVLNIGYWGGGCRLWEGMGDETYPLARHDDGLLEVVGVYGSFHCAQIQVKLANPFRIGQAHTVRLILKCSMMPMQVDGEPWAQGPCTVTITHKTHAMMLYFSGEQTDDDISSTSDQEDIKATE
# Experiment: SILAC LC-MS ATP acyl phosphate probe competition, recombinant DGK-HEK293T lysates
# Type: binding
# Conditions: site DAGKa (K392); membrane fraction; ATP 1 mM; Ketanserin, Ritanserin 100 μM; RF001 1 mM
# Source text: Recombinant DGK proteins were produced by transient transfection of HEK293T cells with recombinant DNA. pDONR223-DGKK was a gift from William Hahn & David Root (Addgene plasmid #23487). pCSF107mT-GATEWAY-3′-FLAG was a gift from Todd Stukenberg (Addgene plasmid #67619). pCSF107mT-DGKK-FLAG construct was generated by recombination of the Addgene plasmids using the Gateway cloning system (Invitrogen). All other vectors were gifted to Dr. Kevin Lynch (University of Virginia, School of Medicine) by Dr. Kaoru Goto (Yamagata University, School of Medicine) and Dr. Fumio Sakane (Chiba University) and were kindly shared with us: pcDNA3-FLAG-DGKA (rat), pCMV-Tag2B-FLAG-DGKQ (human), pcDNA3-DGKE-3×Flag (human), and pCMV-SPORT6-HA-DGKZ (human). HEK293T cells were plated at a concentration of 400,000 cells in complete DMEM and grown to 50-60% confluency. A polyethyleneimine (PEI) stock solution was prepared (1 mg/mL, pH 7.4) and filter sterilized. Serum-free DMEM (600 μL) was mixed gently with 2.6 μg DNA and 20 μL of sterile PEI (1 mg/mL, pH 7.4) in a sterile microfuge tube. Mixtures were incubated for 30 min at 25° C. The mixture was then added drop-wise to each 10 cm^2 plate, rocked back and forth to mix, and placed back in the incubator. Cell pellets were harvested after two full days of growth, snap-frozen in liquid N2, and stored at −80° C. until use. Recombinant proteins were produced by transient transfection in SILAC HEK293T cells using the procedure described above, except that cells were plated at a concentration of 1×10^6 cells per 10 cm^2 plate and grown to ˜70% confluency prior to introducing transfection mixture.
# Cell pellets were resuspended in kinase buffer (Dulbecco's PBS (DPBS, Hyclone), 20 mM MgCl2, EDTA-free protease inhibitors (Pierce)) and then lysed by sonication (3×1 sec pulse, 20% amplitude). The cell lysates were then subjected to centrifugation (100,000×g, 45 min at 4° C.) to isolate the cytosolic fraction in the supernatant and the membrane fraction as a pellet. […] Protein concentrations were measured using the Bio-Rad DC protein assay. […]
row,Structure (SMILES),"SILAC ratio, DGKE DAGKa probe-modified peptide"
1,O=C(c1ccc(F)cc1)C1CCN(CCn2c(=O)[nH]c3ccccc3c2=O)CC1 [Ketanserin],1.3
2,"Fc1ccc(C(=C2CCNCC2)c2ccc(F)cc2)cc1 [RF001, 4-(Bis(4-fluorophenyl)methylene) piperidine]",0.7
3,Cc1nc2sccn2c(=O)c1CCN1CCC(=C(c2ccc(F)cc2)c2ccc(F)cc2)CC1 [Ritanserin],1.0
